# Measurements published in ChEMBL document CHEMBL1201862, “PubChem BioAssay data set” (2004).
# Active and inactive are the calls of the source.
# What was measured:
# Cysteine protease ATG4B = biological target: T1, Cysteine protease ATG4B (Homo sapiens, UniProt Q9Y4P1); format: functional;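 further: Fluorescence-based dose-response confirmation assay measuring inhibition of ATG4B activity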
# T1 sequence (Q9Y4P1 whole entry): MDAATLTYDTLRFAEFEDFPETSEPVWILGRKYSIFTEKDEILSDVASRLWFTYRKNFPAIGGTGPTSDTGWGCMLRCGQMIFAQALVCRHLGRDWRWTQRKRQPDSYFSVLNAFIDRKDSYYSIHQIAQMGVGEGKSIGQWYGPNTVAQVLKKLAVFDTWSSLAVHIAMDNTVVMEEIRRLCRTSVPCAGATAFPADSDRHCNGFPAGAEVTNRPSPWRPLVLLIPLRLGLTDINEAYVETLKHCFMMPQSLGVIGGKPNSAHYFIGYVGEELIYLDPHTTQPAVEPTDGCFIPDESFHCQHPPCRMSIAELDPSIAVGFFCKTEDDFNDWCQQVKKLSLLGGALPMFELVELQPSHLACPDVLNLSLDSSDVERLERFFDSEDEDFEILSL
# Phospholipase A2 = Phospholipase A2 (Homo sapiens, UniProt P04054); format: functional;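 further: confirmatory dose-response counterscreen on phospholipase A2, testing hits that came from an ultra-high-throughput screen for ATG4B inhibitors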
# Phospholipase A2, sequence (P04054 whole entry, the tested form may be a part): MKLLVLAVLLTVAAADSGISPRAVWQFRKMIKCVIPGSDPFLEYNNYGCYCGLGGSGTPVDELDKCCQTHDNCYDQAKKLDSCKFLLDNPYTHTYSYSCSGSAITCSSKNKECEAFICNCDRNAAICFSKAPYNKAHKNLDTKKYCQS
# [1] = biological target: Disintegrin and metalloproteinase domain-containing protein 17 (Homo sapiens, UniProt P78536); assay: exosite inhibitors of ADAM17, dose response, biochemical (AID 743260)
# Disintegrin and metalloproteinase domain-containing protein 17, sequence (P78536 whole entry, the tested form may be a part): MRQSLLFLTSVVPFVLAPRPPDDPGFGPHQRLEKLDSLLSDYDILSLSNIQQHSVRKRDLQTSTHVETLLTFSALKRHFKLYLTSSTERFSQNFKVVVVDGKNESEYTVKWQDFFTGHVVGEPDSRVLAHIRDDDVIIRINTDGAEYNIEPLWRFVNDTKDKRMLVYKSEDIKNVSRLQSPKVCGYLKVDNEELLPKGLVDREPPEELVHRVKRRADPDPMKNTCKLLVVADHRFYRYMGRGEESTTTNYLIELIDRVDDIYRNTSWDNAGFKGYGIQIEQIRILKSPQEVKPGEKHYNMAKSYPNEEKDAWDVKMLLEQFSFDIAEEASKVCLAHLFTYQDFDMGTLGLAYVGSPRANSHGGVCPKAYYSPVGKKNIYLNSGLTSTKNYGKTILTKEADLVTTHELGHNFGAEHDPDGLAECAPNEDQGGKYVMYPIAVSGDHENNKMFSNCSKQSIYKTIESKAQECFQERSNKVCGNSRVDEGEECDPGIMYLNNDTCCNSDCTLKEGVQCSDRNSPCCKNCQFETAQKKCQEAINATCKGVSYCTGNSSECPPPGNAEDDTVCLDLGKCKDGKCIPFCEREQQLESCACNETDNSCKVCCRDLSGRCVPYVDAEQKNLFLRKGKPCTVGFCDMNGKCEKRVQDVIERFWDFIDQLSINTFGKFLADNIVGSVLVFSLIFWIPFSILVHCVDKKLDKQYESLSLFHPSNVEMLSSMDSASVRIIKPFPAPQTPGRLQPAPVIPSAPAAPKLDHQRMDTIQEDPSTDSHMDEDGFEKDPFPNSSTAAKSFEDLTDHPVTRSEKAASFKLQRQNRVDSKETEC
# [2] = ADAM10 protease inhibitors, dose response, selectivity assay for ADAM17 exosite inhibitor project, biochemical, FRET peptide substrate, recombinant human ADAM10 (AID 743259);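 further: ADAM10 enzyme cleaving a FRET peptide substrate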
# Fatty acid synthase [3] = biological target: T2, Fatty acid synthase (Homo sapiens, UniProt P49327); assay: FAS thioesterase domain inhibitors, dose response, biochemical, endpoint fluorescence intensity, uHTS hits (AID 624327); format: functional;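 further: fluorescence from hydrolysis of an O-methyl fluorescein acyl ester substrate by the enzyme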
# T2 sequence (P49327 whole entry, the tested form may be a part): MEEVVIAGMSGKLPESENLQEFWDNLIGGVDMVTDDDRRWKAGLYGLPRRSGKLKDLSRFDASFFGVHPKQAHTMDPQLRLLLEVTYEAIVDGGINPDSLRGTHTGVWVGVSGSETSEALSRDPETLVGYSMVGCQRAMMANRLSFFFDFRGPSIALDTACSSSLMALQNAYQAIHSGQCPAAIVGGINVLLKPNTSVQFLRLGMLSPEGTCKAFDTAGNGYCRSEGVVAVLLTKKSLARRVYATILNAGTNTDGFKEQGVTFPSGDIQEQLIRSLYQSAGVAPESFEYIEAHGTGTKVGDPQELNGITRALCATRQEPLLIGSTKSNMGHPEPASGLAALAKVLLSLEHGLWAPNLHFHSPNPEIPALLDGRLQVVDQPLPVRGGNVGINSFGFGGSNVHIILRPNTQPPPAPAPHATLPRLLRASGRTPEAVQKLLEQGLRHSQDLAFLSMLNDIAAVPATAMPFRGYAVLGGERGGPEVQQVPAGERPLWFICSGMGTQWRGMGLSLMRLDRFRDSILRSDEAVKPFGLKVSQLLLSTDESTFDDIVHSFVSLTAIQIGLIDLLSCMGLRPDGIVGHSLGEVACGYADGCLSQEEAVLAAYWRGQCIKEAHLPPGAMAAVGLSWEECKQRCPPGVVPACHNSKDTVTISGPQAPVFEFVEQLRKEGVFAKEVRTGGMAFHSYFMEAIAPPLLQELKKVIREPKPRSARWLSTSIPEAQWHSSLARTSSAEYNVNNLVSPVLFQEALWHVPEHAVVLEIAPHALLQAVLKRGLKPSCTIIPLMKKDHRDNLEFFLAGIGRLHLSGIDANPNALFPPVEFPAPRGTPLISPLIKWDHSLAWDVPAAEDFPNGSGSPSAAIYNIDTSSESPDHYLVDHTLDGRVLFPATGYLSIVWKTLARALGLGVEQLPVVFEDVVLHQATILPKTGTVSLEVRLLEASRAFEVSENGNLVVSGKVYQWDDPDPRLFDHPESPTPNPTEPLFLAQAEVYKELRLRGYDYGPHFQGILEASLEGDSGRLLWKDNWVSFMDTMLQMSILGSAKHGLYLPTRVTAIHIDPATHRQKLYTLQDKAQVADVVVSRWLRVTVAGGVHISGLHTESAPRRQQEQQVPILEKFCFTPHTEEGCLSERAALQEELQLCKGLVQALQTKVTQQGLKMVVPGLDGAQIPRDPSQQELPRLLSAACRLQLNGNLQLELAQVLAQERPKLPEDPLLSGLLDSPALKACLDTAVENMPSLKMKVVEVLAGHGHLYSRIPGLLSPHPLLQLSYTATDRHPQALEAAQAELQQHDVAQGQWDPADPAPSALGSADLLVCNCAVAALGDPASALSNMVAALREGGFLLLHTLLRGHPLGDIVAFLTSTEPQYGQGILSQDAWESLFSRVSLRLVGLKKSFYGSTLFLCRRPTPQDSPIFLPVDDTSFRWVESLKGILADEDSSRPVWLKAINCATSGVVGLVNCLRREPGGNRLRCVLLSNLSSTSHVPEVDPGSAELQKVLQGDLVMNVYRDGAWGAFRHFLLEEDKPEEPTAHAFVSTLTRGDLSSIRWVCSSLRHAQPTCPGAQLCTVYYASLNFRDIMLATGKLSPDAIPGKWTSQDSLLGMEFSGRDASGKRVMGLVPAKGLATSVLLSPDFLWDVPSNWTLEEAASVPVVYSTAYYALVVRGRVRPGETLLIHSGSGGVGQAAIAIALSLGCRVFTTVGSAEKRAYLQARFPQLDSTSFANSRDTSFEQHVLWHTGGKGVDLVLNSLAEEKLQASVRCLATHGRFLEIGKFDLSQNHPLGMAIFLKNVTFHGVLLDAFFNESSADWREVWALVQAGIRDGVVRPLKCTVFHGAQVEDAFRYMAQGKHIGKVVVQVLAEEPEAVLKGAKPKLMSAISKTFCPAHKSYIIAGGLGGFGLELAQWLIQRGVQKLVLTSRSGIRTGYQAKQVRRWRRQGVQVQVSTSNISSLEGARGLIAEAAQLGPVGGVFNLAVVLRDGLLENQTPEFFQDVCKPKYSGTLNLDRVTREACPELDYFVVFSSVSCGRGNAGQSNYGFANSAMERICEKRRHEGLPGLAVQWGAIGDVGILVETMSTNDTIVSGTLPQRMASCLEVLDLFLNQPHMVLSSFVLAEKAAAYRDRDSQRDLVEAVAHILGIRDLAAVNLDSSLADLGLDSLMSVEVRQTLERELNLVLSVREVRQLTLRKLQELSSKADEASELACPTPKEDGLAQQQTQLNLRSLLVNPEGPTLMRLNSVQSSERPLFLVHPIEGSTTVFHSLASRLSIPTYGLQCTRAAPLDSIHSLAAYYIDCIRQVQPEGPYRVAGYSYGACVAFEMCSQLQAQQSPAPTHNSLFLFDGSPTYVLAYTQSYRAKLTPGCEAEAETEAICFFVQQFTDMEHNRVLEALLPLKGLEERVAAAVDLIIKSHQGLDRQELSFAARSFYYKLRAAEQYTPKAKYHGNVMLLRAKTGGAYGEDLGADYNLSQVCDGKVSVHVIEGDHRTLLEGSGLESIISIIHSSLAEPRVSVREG
# Fatty acid synthase [4] = biological target: T2, Fatty acid synthase; assay: FAS thioesterase domain inhibitors, dose response, biochemical, kinetic fluorescence intensity (AID 624326); format: functional;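 further: rate of fluorescence rise from hydrolysis of a fluorogenic O-methyl fluorescein ester substrate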
# INS1 = assay: beta cell apoptosis inhibitors, cytokine rescue, dose response, luminescence, retest (AID 449756); format: functional, cell-based; conditions: Rattus norvegicus;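 further: cell death triggered by IL-1 beta plus TNF-alpha plus IFN-gamma mixture; protective hits raise ATP signal compared with cytokine alone wells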
# [5] = Shn3 3'UTR reporter inhibitors, dose response, cell-based, Clone20 osteoblasts, firefly luciferase, cherry-picked (AID 624132); format: functional;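 further: firefly luciferase luminescence from reporter carrying the Shn3 3'UTR in osteoblasts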
# [6] = HepG2 cell cytotoxicity, dose response, cytotoxicity control for Shn3 inhibitor project, CellTiter-Glo, cherry-picked (AID 624134); format: functional, cell-based
# [7] = control 3'UTR Renilla luciferase suppression, dose response, counter-screen for Shn3 inhibitor project, cell-based, Clone20-Shn3RL, cherry-picked (AID 624133); format: functional
# Galanin receptor type 3 = biological target: T3, Galanin receptor type 3 (Homo sapiens, UniProt O60755); assay: Fluorescence-based cell-based primary high throughput dose response assay to identify antagonists of the Galanin Receptor 3 (GalR3).; format: functional
# T3 sequence (O60755 whole entry): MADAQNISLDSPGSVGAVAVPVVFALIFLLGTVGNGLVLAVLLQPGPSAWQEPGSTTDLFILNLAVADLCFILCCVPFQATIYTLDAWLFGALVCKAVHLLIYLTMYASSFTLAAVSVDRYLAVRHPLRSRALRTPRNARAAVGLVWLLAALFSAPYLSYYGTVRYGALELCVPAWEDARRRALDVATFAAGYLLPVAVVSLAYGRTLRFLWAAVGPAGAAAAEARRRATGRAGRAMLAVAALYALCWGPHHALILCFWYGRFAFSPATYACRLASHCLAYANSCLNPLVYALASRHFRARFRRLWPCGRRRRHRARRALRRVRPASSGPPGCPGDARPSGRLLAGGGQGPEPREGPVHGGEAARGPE
# cells = format: functional, cell-based; conditions: HEK-CNG
# [8] = biological target: T4, Long-chain-fatty-acid--AMP ligase FadD28 (Mycobacterium tuberculosis, UniProt P9WQ59); assay: Fluorescence polarization aasay to screen for inhibitors that compete for the binding of FadD28 to a bisubstrate Measured in Biochemical System Using Plate Reader - 2147-01_Inhibitor_Dose_CherryPick_Activity.; format: functional, Mycobacterium tuberculosis H37Rv
# T4 sequence (P9WQ59 whole entry): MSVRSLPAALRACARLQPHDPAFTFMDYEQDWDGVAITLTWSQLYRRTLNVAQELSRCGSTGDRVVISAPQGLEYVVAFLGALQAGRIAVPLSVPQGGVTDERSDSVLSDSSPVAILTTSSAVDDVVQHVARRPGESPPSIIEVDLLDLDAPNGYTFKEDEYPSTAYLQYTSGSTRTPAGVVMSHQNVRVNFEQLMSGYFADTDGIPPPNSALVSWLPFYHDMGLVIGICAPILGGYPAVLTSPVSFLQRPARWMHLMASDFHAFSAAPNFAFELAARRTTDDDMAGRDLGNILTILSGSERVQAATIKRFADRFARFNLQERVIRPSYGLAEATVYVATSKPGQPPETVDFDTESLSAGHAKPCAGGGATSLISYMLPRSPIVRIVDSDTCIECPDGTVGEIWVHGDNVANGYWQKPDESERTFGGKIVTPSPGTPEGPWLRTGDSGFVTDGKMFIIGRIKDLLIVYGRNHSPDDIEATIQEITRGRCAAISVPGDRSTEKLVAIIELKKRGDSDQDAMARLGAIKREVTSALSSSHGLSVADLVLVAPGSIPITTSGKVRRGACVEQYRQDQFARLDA
# [9] = biological target: T5, Tyrosyl-DNA phosphodiesterase 2 (Homo sapiens, UniProt O95551); assay: human TDP2 enzyme inhibitors, dose response, biochemical, epi absorbance, IC50 (AID 743297)
# T5 sequence (O95551 whole entry): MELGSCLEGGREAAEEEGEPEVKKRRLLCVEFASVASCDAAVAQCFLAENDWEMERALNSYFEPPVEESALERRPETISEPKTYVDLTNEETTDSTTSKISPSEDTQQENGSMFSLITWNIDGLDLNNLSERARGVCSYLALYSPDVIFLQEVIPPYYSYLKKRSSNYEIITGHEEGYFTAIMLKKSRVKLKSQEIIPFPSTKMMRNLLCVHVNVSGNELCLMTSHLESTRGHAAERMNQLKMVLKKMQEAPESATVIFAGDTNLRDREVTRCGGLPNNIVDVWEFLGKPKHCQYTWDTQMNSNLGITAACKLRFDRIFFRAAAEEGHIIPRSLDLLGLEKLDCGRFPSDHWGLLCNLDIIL
# [10] = inhibitors of Vif binding to APOBEC3G peptide, primary screen, biochemical, TR-FRET, GST-Vif 1-94, biotin-A3G peptide, dose response retest (AID 1117319); format: functional;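 further: TR-FRET signal of purified GST-Vif binding a biotinylated A3G peptide; inhibitors lower the FRET signal by blocking Vif and A3G binding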
# [11] = biological target: T6, Mitochondrial peptide methionine sulfoxide reductase (Bos taurus, UniProt P54149); assay: Absorbance-based biochemical high throughput dose response assay for activators of Methionine sulfoxide reductase A (MsrA).; format: functional
# T6 sequence (P54149 whole entry): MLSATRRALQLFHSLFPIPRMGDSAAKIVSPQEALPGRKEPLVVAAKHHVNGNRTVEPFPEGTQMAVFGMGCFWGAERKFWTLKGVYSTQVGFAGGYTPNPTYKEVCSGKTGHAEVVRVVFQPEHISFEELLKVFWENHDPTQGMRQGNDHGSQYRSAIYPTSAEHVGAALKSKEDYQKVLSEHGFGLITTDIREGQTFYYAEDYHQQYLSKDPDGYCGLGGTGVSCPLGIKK
# [12] = biological target: T7, Low molecular weight phosphotyrosine protein phosphatase (Homo sapiens, UniProt P24666); format: functional; conditions: read-out: IC50_Mean;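 further: Dose-response confirmation assay measuring inhibition of LMPTP enzyme activity by fluorescence intensity read-out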
# T7 sequence (P24666 whole entry): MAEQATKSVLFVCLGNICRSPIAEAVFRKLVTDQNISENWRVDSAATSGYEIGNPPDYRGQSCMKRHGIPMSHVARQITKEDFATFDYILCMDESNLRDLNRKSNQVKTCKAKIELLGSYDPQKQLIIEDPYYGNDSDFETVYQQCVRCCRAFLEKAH
compound,measurement,setting,value
CC1(C)Cc2c(sc(NC(=S)NC(=O)c3ccccc3)c2C(=O)O)CO1,IC50,Cysteine protease ATG4B,21.1 µM (inactive)
same,IC50,Phospholipase A2,13.1 µM (active)
Cc1cccc(NC(=O)CSc2nnc(SCc3ccc(Cl)cc3)s2)c1,IC50,[1],> 69.4 µM (inactive)
same,IC50,[2],> 69.4 µM (inactive)
Cc1ccc(S(=O)(=O)/N=C(\Sc2ccccc2)c2ccccc2)cc1,IC50,Fatty acid synthase [3],11 µM (active)
same,IC50,Fatty acid synthase [4],54 µM (inactive)
NC(=O)c1ccc(N2CCN(S(=O)(=O)c3cccs3)CC2)c([N+](=O)[O-])c1,AC50,INS1,3.67 µM (active)
same,AC50,[5],305 nM (active)
same,AC50,[6],2.54 µM (active)
same,AC50,[7],6.21 µM (active)
same,IC50,Galanin receptor type 3,1.09 µM (active)
same,EC50,cells,> 29.9 µM (inactive)
O=C(COC(=O)c1cc([N+](=O)[O-])ccc1NCCO)NCc1cccs1,IC50,Fatty acid synthase [3],3.84 µM (active)
same,IC50,Fatty acid synthase [4],1.68 µM (active)
CC(C)N(C)S(=O)(=O)c1ccc(NC(=O)CSC(=S)N2CCCC2)cc1,AC50,[8],> 100 µM (inactive)
Clc1ccccc1N=Nc1ccccn1,IC50,[9],> 128 µM (inactive)
same,IC50,[10],> 100 µM (active)
CC(C)COC(=O)c1ccc(N2C(=O)c3ccccc3C2=O)cc1,IC50,Cysteine protease ATG4B,16.2 µM (active)
same,IC50,Phospholipase A2,66.5 µM (inactive)
same,EC50,[11],> 104 µM (inactive)
CCn1cc(C(=O)O)c(=O)c2cc(F)c(N3CCN(C(=S)Nc4ccc(OC)cc4)CC3)cc21,IC50,[12],73.8 µM (inactive)
